#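 Five concentrations, 48 hours, 96-well plates. Here, GI50 denotes the concentration required for 50% inhibition of growth.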 Activity calls are given as the source filed them. Cut-off read from the data, not from the text of the source: active = GI50 up to about 1.1 µM and inactive = higher.
# Legend:
# Assay in all cases: inhibition of tumour cell growth, NCI panel, 48 h
# SN12C = test system: SN12C
# LOX IMVI = test system: LOX IMVI
# SK-OV-3 = test system: SK-OV-3
# UO-31 = test system: UO-31
# NCI/ADR-RES = test system: NCI/ADR-RES
# SF-268 = test system: SF-268
# BT-549 = test system: BT-549
# SF-539 = test system: SF-539
# SK-MEL-28 = test system: SK-MEL-28
# M14 = test system: M14
# SW-620 = test system: SW-620
# OVCAR-5 = test system: OVCAR-5
# NCI-H23 = test system: NCI-H23
# NCI-H522 = test system: NCI-H522
# OVCAR-8 = test system: OVCAR-8
# MDA-MB-435 = test system: MDA-MB-435
# UACC-257 = test system: UACC-257
# HCT-116 = test system: HCT-116
# Hs-578T = test system: Hs-578T
# HOP-62 = test system: HOP-62
# HL-60 = test system: HL-60
# A498 = test system: A498
# CAKI-1 = test system: CAKI-1
# MCF7 = test system: MCF7
# EKVX = test system: EKVX
# T47D = test system: T47D
# OVCAR-4 = test system: OVCAR-4
# U-251 = test system: U-251
# NCI-H226 = test system: NCI-H226
# 786-0 = test system: 786-0
# HCT-15 = test system: HCT-15
# HT-29 = test system: HT-29
# UACC-62 = test system: UACC-62
# TK-10 = test system: TK-10
# SR = test system: SR
# MDA-MB-231 = test system: MDA-MB-231
# COLO 205 = test system: COLO 205
# K562 = test system: K562
# RPMI-8226 = test system: RPMI-8226
# IGROV-1 = test system: IGROV-1
# NCI-H460 = test system: NCI-H460
# RXF 393 = test system: RXF 393
# ACHN = test system: ACHN
# PC-3 = test system: PC-3
# A549 = test system: A549
# KM12 = test system: KM12
# HCC 2998 = test system: HCC 2998
# HOP-92 = test system: HOP-92
# SK-MEL-2 = test system: SK-MEL-2
# SNB-19 = test system: SNB-19
# CCRF-CEM = test system: CCRF-CEM
# SF-295 = test system: SF-295
# MDA-N = test system: MDA-N
# DU-145 = test system: DU-145
# SK-MEL-5 = test system: SK-MEL-5
# OVCAR-3 = test system: OVCAR-3
# MOLT-4 = test system: MOLT-4
# Malme-3M = test system: Malme-3M
# SNB-75 = test system: SNB-75
compound,measurement,setting,value
Cc1c(C(=O)O)n2cnnc2c2ccccc12,GI50,SN12C,> 100 µM (inactive)
same,GI50,LOX IMVI,> 100 µM (inactive)
same,GI50,SK-OV-3,> 100 µM (inactive)
same,GI50,UO-31,> 100 µM (inactive)
same,GI50,NCI/ADR-RES,> 100 µM (inactive)
same,GI50,SF-268,> 100 µM (inactive)
same,GI50,BT-549,> 100 µM (inactive)
same,GI50,SF-539,> 100 µM (inactive)
same,GI50,SK-MEL-28,> 100 µM (inactive)
same,GI50,M14,> 100 µM (inactive)
same,GI50,SW-620,> 100 µM (inactive)
same,GI50,OVCAR-5,> 100 µM (inactive)
same,GI50,NCI-H23,> 100 µM (inactive)
same,GI50,NCI-H522,> 100 µM (inactive)
same,GI50,OVCAR-8,> 100 µM (inactive)
same,GI50,MDA-MB-435,> 100 µM (inactive)
same,GI50,UACC-257,> 100 µM (inactive)
same,GI50,HCT-116,> 100 µM (inactive)
same,GI50,Hs-578T,> 100 µM (inactive)
same,GI50,HOP-62,> 100 µM (inactive)
same,GI50,HL-60,> 100 µM (inactive)
same,GI50,A498,> 100 µM (inactive)
same,GI50,CAKI-1,> 100 µM (inactive)
same,GI50,MCF7,> 100 µM (inactive)
same,GI50,EKVX,> 100 µM (inactive)
same,GI50,T47D,> 100 µM (inactive)
same,GI50,OVCAR-4,> 100 µM (inactive)
same,GI50,U-251,> 100 µM (inactive)
same,GI50,NCI-H226,> 100 µM (inactive)
same,GI50,786-0,> 100 µM (inactive)
same,GI50,HCT-15,> 100 µM
same,GI50,HT-29,> 100 µM (inactive)
same,GI50,UACC-62,> 100 µM (inactive)
same,GI50,TK-10,> 100 µM (inactive)
same,GI50,SR,> 100 µM (inactive)
same,GI50,MDA-MB-231,> 100 µM (inactive)
same,GI50,COLO 205,> 100 µM (inactive)
same,GI50,K562,> 100 µM (inactive)
same,GI50,RPMI-8226,> 100 µM (inactive)
same,GI50,IGROV-1,> 100 µM (inactive)
same,GI50,NCI-H460,> 100 µM (inactive)
same,GI50,RXF 393,> 100 µM (inactive)
same,GI50,ACHN,> 100 µM (inactive)
same,GI50,PC-3,> 100 µM (inactive)
same,GI50,A549,> 100 µM (inactive)
same,GI50,KM12,> 100 µM (inactive)
same,GI50,HCC 2998,> 100 µM (inactive)
same,GI50,HOP-92,> 100 µM (inactive)
same,GI50,SK-MEL-2,> 100 µM (inactive)
same,GI50,SNB-19,> 100 µM (inactive)
same,GI50,CCRF-CEM,> 100 µM (inactive)
same,GI50,SF-295,> 100 µM (inactive)
same,GI50,MDA-N,> 100 µM (inactive)
same,GI50,DU-145,> 100 µM (inactive)
same,GI50,SK-MEL-5,> 100 µM (inactive)
same,GI50,OVCAR-3,> 100 µM (inactive)
same,GI50,MOLT-4,> 100 µM (inactive)
C=C(CC)C[C@@H]1C[C@]2(C(=O)OC)c3[nH]c4ccccc4c3CCN2C1=O,GI50,SN12C,20 µM (inactive)
same,GI50,LOX IMVI,17.3 µM (inactive)
same,GI50,SK-OV-3,21 µM (inactive)
same,GI50,UO-31,17.9 µM (inactive)
same,GI50,Malme-3M,20.7 µM (inactive)
same,GI50,NCI/ADR-RES,19.5 µM (inactive)
same,GI50,SF-268,21.6 µM (inactive)
same,GI50,BT-549,22 µM (inactive)
same,GI50,SF-539,16.4 µM (inactive)
same,GI50,SK-MEL-28,19.5 µM (inactive)
same,GI50,M14,15.6 µM (inactive)
same,GI50,SW-620,16.4 µM (inactive)
same,GI50,OVCAR-5,21 µM (inactive)
same,GI50,NCI-H23,18.9 µM (inactive)
same,GI50,NCI-H522,14.6 µM (inactive)
same,GI50,OVCAR-8,33 µM (inactive)
same,GI50,MDA-MB-435,19.3 µM (inactive)
same,GI50,UACC-257,19.2 µM (inactive)
same,GI50,HCT-116,14.7 µM (inactive)
same,GI50,Hs-578T,14.2 µM (inactive)
same,GI50,HOP-62,17.9 µM (inactive)
same,GI50,HL-60,23.4 µM (inactive)
same,GI50,A498,17.6 µM (inactive)
same,GI50,CAKI-1,16.9 µM (inactive)
same,GI50,MCF7,20.7 µM (inactive)
same,GI50,EKVX,30.8 µM (inactive)
same,GI50,SNB-75,21.3 µM (inactive)
same,GI50,T47D,26.2 µM (inactive)
same,GI50,OVCAR-4,37.8 µM (inactive)
same,GI50,U-251,21.1 µM (inactive)
same,GI50,786-0,16 µM (inactive)
same,GI50,HCT-15,16.6 µM
same,GI50,HT-29,19.5 µM (inactive)
same,GI50,UACC-62,16.9 µM (inactive)
same,GI50,TK-10,35.3 µM (inactive)
same,GI50,SR,29.4 µM (inactive)
same,GI50,MDA-MB-231,24.7 µM (inactive)
same,GI50,COLO 205,33.9 µM (inactive)
same,GI50,K562,18.9 µM (inactive)
same,GI50,IGROV-1,20.3 µM (inactive)
same,GI50,NCI-H460,21.1 µM (inactive)
same,GI50,RXF 393,12.2 µM (inactive)
same,GI50,ACHN,26.1 µM (inactive)
same,GI50,PC-3,16.7 µM (inactive)
same,GI50,A549,14.7 µM (inactive)
same,GI50,KM12,24.4 µM (inactive)
same,GI50,HCC 2998,18.4 µM (inactive)
same,GI50,HOP-92,14.7 µM (inactive)
same,GI50,SK-MEL-2,17.1 µM (inactive)
same,GI50,SNB-19,17.8 µM (inactive)
same,GI50,SF-295,14.7 µM (inactive)
same,GI50,MDA-N,17.4 µM (inactive)
same,GI50,DU-145,30.4 µM (inactive)
same,GI50,SK-MEL-5,17.1 µM (inactive)
same,GI50,OVCAR-3,14.1 µM (inactive)
same,GI50,MOLT-4,23 µM (inactive)
CCOC(=O)c1cn2c(n1)sc1cc(F)ccc12,GI50,SN12C,> 100 µM (inactive)
same,GI50,LOX IMVI,80.7 µM (inactive)
same,GI50,SK-OV-3,> 100 µM (inactive)
same,GI50,UO-31,> 100 µM (inactive)
same,GI50,Malme-3M,> 100 µM (inactive)
same,GI50,NCI/ADR-RES,> 100 µM (inactive)
same,GI50,SF-268,82.2 µM (inactive)
same,GI50,BT-549,77.6 µM (inactive)
same,GI50,SF-539,99.5 µM (inactive)
same,GI50,SK-MEL-28,> 100 µM (inactive)
same,GI50,M14,64.4 µM (inactive)
same,GI50,SW-620,> 100 µM (inactive)
same,GI50,OVCAR-5,25.2 µM (inactive)
same,GI50,NCI-H23,> 100 µM (inactive)
same,GI50,NCI-H522,> 100 µM (inactive)
same,GI50,OVCAR-8,> 100 µM (inactive)
same,GI50,MDA-MB-435,42.3 µM (inactive)
same,GI50,UACC-257,> 100 µM (inactive)
same,GI50,HCT-116,50.6 µM (inactive)
same,GI50,Hs-578T,64.3 µM (inactive)
same,GI50,HOP-62,29.5 µM (inactive)
same,GI50,A498,30.8 µM (inactive)
same,GI50,CAKI-1,> 100 µM (inactive)
same,GI50,MCF7,46.9 µM (inactive)
same,GI50,EKVX,> 100 µM (inactive)
same,GI50,SNB-75,58.5 µM (inactive)
same,GI50,T47D,> 100 µM (inactive)
same,GI50,OVCAR-4,> 100 µM (inactive)
same,GI50,U-251,77.6 µM (inactive)
same,GI50,NCI-H226,> 100 µM (inactive)
same,GI50,786-0,52.8 µM (inactive)
same,GI50,HCT-15,> 100 µM
same,GI50,HT-29,82.8 µM (inactive)
same,GI50,UACC-62,> 100 µM (inactive)
same,GI50,TK-10,> 100 µM (inactive)
same,GI50,SR,16.1 µM (inactive)
same,GI50,MDA-MB-231,92.7 µM (inactive)
same,GI50,COLO 205,> 100 µM (inactive)
same,GI50,K562,> 100 µM (inactive)
same,GI50,RPMI-8226,> 100 µM (inactive)
same,GI50,IGROV-1,> 100 µM (inactive)
same,GI50,NCI-H460,> 100 µM (inactive)
same,GI50,RXF 393,85.1 µM (inactive)
same,GI50,ACHN,> 100 µM (inactive)
same,GI50,PC-3,> 100 µM (inactive)
same,GI50,A549,> 100 µM (inactive)
same,GI50,KM12,62.8 µM (inactive)
same,GI50,HCC 2998,> 100 µM (inactive)
same,GI50,HOP-92,> 100 µM (inactive)
same,GI50,SK-MEL-2,> 100 µM (inactive)
same,GI50,SNB-19,> 100 µM (inactive)
same,GI50,CCRF-CEM,> 100 µM (inactive)
same,GI50,SF-295,74.8 µM (inactive)
same,GI50,MDA-N,19.4 µM (inactive)
same,GI50,DU-145,> 100 µM (inactive)
same,GI50,SK-MEL-5,> 100 µM (inactive)
same,GI50,OVCAR-3,> 100 µM (inactive)
same,GI50,MOLT-4,> 100 µM (inactive)
